Measured values published in publication PMC5775429, “LY2087101 and dFBr share transmembrane binding sites in the (α4)3(β2)2 Nicotinic Acetylcholine Receptor” (Scientific Reports, 2018).
Read-outs that look alike come from different tables or passages of the source. Marks after values point to notes of the source that are not given here.

Experiments:
(α4G67E)3(β2)2 nAChR = (α4G67E)3(β2)2 nAChR (Homo sapiens, UniProt P43681, G67E); assay: Two-electrode voltage-clamp of ACh-induced currents in Xenopus oocytes; assay type: cell-based; conditions: 10 µM ACh + 1 µM LY2087101 vs 10 µM ACh alone
Chain of (α4G67E)3(β2)2 nAChR (P43681 29-627 G67E limits assumed): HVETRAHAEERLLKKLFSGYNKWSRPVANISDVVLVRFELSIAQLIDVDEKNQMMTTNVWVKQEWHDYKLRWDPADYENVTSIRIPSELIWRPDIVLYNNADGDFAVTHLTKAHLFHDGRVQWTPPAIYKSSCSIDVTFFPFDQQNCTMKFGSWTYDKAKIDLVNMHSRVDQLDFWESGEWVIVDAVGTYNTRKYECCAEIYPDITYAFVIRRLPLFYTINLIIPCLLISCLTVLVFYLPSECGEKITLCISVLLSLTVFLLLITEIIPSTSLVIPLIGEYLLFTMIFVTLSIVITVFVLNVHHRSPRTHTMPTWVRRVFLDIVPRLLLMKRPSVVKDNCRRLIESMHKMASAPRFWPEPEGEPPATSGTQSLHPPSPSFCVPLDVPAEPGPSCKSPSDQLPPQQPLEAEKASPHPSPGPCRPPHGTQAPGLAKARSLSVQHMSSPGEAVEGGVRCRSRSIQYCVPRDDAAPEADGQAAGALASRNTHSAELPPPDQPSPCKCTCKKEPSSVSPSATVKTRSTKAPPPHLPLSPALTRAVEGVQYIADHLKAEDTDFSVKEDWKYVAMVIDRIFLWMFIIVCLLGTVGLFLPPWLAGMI
Chain of (α4G67E)3(β2)2 nAChR (P17787 26-502 partner): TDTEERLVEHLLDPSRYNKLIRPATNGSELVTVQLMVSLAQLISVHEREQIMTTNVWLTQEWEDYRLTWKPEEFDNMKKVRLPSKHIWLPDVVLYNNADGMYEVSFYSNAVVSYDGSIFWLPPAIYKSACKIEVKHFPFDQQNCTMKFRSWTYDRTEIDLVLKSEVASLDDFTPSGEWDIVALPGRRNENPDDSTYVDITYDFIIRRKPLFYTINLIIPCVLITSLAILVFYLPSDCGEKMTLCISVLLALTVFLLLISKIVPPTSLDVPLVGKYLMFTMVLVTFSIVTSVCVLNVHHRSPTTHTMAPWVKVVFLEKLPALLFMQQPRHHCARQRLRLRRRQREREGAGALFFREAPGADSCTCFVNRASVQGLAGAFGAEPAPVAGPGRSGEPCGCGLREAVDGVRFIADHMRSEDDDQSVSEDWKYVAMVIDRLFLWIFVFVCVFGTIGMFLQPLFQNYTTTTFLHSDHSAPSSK
Procedure: (§1) For amino acid substitutions within the α4 nAChR subunit, point mutations were introduced into pSP64ployA plasmid with cDNA encoding for human α4 nAChR subunit with mutagenic primer pairs using the Quick Change II Site-Directed Mutagenesis Kit (Agilent Technologies) then confirmed by DNA sequencing (GENEWIZ, LLC, South Plainfield, NJ). cRNA transcripts suitable for oocyte expression were prepared in vitro from linearized plasmids [α3 (BamH1), α4 (AseI), β2 (PvuII), β4 (XhoI)] using mMESSAGE mMACHINE high yield capped RNA transcription kits (Ambion) and purified on NucAway Spin column (Invitrogen). cRNA concentration was determined by spectroscopy (Concentration (ug/ul) = Abs260 * 40), aliquoted and stored at −80 °C until used.
(§2) Ovarian lobules were surgically harvested from oocytes-positive female Xenopus laevis (NASCO, Fort Atkinson, WI) according to an animal use protocol approved by the Texas A&M Health Sciences Center Institutional Animals Care and Use Committee. The Texas A&M Health Sciences Center Research Facility is registered as an animal research facility with the United States Department of Agriculture and is fully accredited by the American Association for Accreditation of Laboratory Animal Care (AAALAC). For oocytes defolliculation, ovarian lobes were treated with 3 mg/ml collagenase type 2 (Worthington Biomedical, Lakewood, NJ) in Ca + 2-free buffer (85 mM NaCl, 2.5 mM KCl, 1 mM MgCl2, 5 mM HEPES, pH 7.6). Collagenase treatment was allowed to proceed for 3 hours at room temperature with gentle shaking then oocytes were washed several times with buffer to remove collagenase then with ND96-gentamicine buffer. Healthy Stage V and VI oocytes were visually selected and maintained at 18 °C in modified ND96-gentamicine buffer (96 mM NaCl, 2 mM KCl, 1.8 mM CaCl2, 1 mM MgCl2, 5 mM HEPES, 50 µg/ml gentamicin, pH 7.6). Oocytes were injected with 50–100 ng of the desired nAChR subunits cRNA mix at ratios of 8α:1β or 1α:8β to express nAChRs with subunit stoichiometries of 3α:2β (low agonist sensitivity) or 2α:3β (high agonist sensitivity), respectively.
(§3) Two-electrode voltage clamp recording of ACh-induced responses of Xenopus oocytes were performed 24–72 h following injection of nAChR subunit cRNA mix to ensure adequate nAChRs expression. Xenopus oocytes were placed in a custom-made recording chamber that is connected to eight channels automated perfusion system (Warner Instruments) and voltage-clamped at −50 mV using Oocyte Clamp OC-725B (Warner Instruments). Oocytes were continuously perfused with recording buffer (100 mM NaCl, 2 mM KCl, 1 mM CaCl2, 0.8 mM MgCl2, 1 mM EGTA, 10 mM Hepes, pH 7.5) except during periods of drug applications. […] Currents were digitized using Digidata 1550 A (Axon Instruments) and peak currents were quantified using pCLAMP 10 (Axon Instruments) then normalized and analyzed using Excels 2010 (Microsoft corporation) and SigmaPlot 11.0 (Systat Software).

(α4H142L)3(β2)2 nAChR = (α4H142L)3(β2)2 nAChR (Homo sapiens, UniProt P43681, H142L); assay: as above; assay type: cell-based; conditions: 10 µM ACh + 1 µM LY2087101 vs 10 µM ACh alone
Chain of (α4H142L)3(β2)2 nAChR (P43681 29-627 H142L limits assumed): as the sequence (P43681 29-627 G67E limits assumed) above, with E39G, H114L counted along it
Chain of (α4H142L)3(β2)2 nAChR (P17787 26-502 partner): as the sequence (P17787 26-502 partner) above
Procedure: as §1, §2, §3

(α4Q150T)3(β2)2 nAChR = (α4Q150T)3(β2)2 nAChR (Homo sapiens, UniProt P43681, Q150T); assay: as above; assay type: cell-based; conditions: 10 µM ACh + 1 µM LY2087101 vs 10 µM ACh alone
Chain of (α4Q150T)3(β2)2 nAChR (P43681 29-627 Q150T limits assumed): as the sequence (P43681 29-627 G67E limits assumed) above, with E39G, Q122T counted along it
Chain of (α4Q150T)3(β2)2 nAChR (P17787 26-502 partner): as the sequence (P17787 26-502 partner) above
Procedure: as §1, §2, §3

(α4H94N)3(β2)2 nAChR = (α4H94N)3(β2)2 nAChR (Homo sapiens, UniProt P43681, H94N); assay: as above; assay type: cell-based; conditions: 10 µM ACh + 1 µM LY2087101 vs 10 µM ACh alone
Chain of (α4H94N)3(β2)2 nAChR (P43681 29-627 H94N limits assumed): as the sequence (P43681 29-627 G67E limits assumed) above, with E39G, H66N counted along it
Chain of (α4H94N)3(β2)2 nAChR (P17787 26-502 partner): as the sequence (P17787 26-502 partner) above
Procedure: as §1, §2, §3

(α4R65H)3(β2)2 nAChR = (α4R65H)3(β2)2 nAChR (Homo sapiens, UniProt P43681, R65H); assay: as above; assay type: cell-based; conditions: 10 µM ACh + 1 µM LY2087101 vs 10 µM ACh alone
Chain of (α4R65H)3(β2)2 nAChR (P43681 29-627 R65H limits assumed): as the sequence (P43681 29-627 G67E limits assumed) above, with R37H, E39G counted along it
Chain of (α4R65H)3(β2)2 nAChR (P17787 26-502 partner): as the sequence (P17787 26-502 partner) above
Procedure: as §1, §2, §3

(α4R148E)3(β2)2 nAChR [1] = target: T1, (α4R148E)3(β2)2 nAChR (Homo sapiens, UniProt P43681, R148E); assay: as above; assay type: cell-based; conditions: 10 µM ACh + 1 µM LY2087101 vs 10 µM ACh alone
T1 sequence (P43681 29-627 R148E limits assumed): as the sequence (P43681 29-627 G67E limits assumed) above, with E39G, R120E counted along it
T1 sequence (P17787 26-502 partner): as the sequence (P17787 26-502 partner) above
Procedure: as §1, §2, §3

(α4E92I)3(β2)2 nAChR = (α4E92I)3(β2)2 nAChR (Homo sapiens, UniProt P43681, E92I); assay: as above; assay type: cell-based; conditions: 10 µM ACh + 1 µM LY2087101 vs 10 µM ACh alone
Chain of (α4E92I)3(β2)2 nAChR (P43681 29-627 E92I limits assumed): as the sequence (P43681 29-627 G67E limits assumed) above, with E39G, E64I counted along it
Chain of (α4E92I)3(β2)2 nAChR (P17787 26-502 partner): as the sequence (P17787 26-502 partner) above
Procedure: as §1, §2, §3

(α4L63I)3(β2)2 nAChR [2] = target: T2, (α4L63I)3(β2)2 nAChR (Homo sapiens, UniProt P43681, L63I); assay: as above; assay type: cell-based; conditions: 10 µM ACh + 1 µM LY2087101 vs 10 µM ACh alone
T2 sequence (P43681 29-627 L63I limits assumed): as the sequence (P43681 29-627 G67E limits assumed) above, with L35I, E39G counted along it
T2 sequence (P17787 26-502 partner): as the sequence (P17787 26-502 partner) above
Procedure: as §1, §2, §3

(α4T152I)3(β2)2 nAChR [3] = target: T3, (α4T152I)3(β2)2 nAChR (Homo sapiens, UniProt P43681, T152I); assay: as above; assay type: cell-based; conditions: 10 µM ACh + 1 µM LY2087101 vs 10 µM ACh alone
T3 sequence (P43681 29-627 T152I limits assumed): as the sequence (P43681 29-627 G67E limits assumed) above, with E39G, T124I counted along it
T3 sequence (P17787 26-502 partner): as the sequence (P17787 26-502 partner) above
Procedure: as §1, §2, §3

(α4R148E)3(β2)2 nAChR [4] = target: T1, (α4R148E)3(β2)2 nAChR; set-up: method as in PMID 28446611; conditions: 10 µM ACh + 1 µM dFBr vs 10 µM ACh alone; data reported previously ref 29; cited from earlier work
α3β4 nAChR = target: T4, α3β4 nAChR (Homo sapiens, UniProt P30926+P32297); assay: Two-electrode voltage-clamp of ACh-induced currents in Xenopus oocytes; assay type: cell-based; conditions: 1 μM PAM
T4 construct: expressed in transfected cells; host or cells: Xenopus laevis oocytes injected with cRNA
T4 sequence (P32297 32-505): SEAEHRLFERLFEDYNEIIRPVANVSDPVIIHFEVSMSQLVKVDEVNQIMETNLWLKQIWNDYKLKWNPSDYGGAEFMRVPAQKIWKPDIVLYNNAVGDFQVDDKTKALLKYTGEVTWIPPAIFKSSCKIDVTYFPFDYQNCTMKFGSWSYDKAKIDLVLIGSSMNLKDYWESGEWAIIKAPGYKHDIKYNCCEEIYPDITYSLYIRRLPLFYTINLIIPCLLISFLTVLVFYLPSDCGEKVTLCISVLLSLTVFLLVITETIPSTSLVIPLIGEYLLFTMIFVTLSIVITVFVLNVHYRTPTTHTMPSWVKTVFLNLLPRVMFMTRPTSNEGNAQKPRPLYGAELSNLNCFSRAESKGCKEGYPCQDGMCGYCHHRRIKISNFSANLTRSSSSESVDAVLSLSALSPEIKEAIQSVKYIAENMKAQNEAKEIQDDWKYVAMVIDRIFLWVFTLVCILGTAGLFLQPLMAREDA
T4 sequence (P30926 22-498): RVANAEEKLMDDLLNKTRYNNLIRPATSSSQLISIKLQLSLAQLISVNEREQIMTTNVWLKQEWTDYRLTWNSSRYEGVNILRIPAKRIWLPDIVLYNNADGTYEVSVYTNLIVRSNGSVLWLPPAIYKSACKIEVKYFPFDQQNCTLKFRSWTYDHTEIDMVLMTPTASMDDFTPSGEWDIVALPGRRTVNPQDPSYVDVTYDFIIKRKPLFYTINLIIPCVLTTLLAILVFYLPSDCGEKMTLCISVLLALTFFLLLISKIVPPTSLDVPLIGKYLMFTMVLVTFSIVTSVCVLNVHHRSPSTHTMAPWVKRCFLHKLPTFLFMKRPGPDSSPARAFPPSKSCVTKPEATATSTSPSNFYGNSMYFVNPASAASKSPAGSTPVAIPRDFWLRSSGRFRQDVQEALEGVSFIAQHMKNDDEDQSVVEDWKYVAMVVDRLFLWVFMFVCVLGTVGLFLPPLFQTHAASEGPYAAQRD
Procedure: Next, Xenopus oocytes were injected with RNA mixes of […], α3:β4, […], or α4:β4 at ratios of 8:1, 1:1, or 1:8 to express nAChRs with different subunit composition and with various α:β ratios.
as §2
Oocytes were continuously perfused with recording buffer (100 mM NaCl, 2 mM KCl, 1 mM CaCl2, 0.8 mM MgCl2, 1 mM EGTA, 10 mM Hepes, pH 7.5) except during periods of drug applications.

(α4)3(β2)2 nAChR = target: T5, (α4)3(β2)2 nAChR (Homo sapiens, UniProt P17787+P43681); conditions: cited from earlier work
T5 construct: expressed in transfected cells; host or cells: Xenopus laevis oocytes injected with cRNA
T5 sequence (P43681 29-627 limits assumed): as the sequence (P43681 29-627 G67E limits assumed) above, with E39G counted along it
T5 sequence (P17787 26-502): as the sequence (P17787 26-502 partner) above

(α4L63I)3(β2)2 nAChR [5] = target: T2, (α4L63I)3(β2)2 nAChR; set-up: method as in PMID 28446611; conditions: 10 µM ACh + 1 µM dFBr vs 10 µM ACh alone; data reported previously ref 29; cited from earlier work
(α4)2(β2)3 nAChR = target: T6, (α4)2(β2)3 nAChR (Homo sapiens, UniProt P17787+P43681); conditions: cited from earlier work
T6 construct: expressed in transfected cells; host or cells: Xenopus laevis oocytes injected with cRNA
T6 sequence (P43681 29-627 limits assumed): as the sequence (P43681 29-627 G67E limits assumed) above, with E39G counted along it
T6 sequence (P17787 26-502): as the sequence (P17787 26-502 partner) above

(α4T152I)3(β2)2 nAChR [6] = target: T3, (α4T152I)3(β2)2 nAChR; set-up: method as in PMID 28446611; conditions: 10 µM ACh + 1 µM dFBr vs 10 µM ACh alone; data reported previously ref 29; cited from earlier work
[7] = tested on: non-induced compulsive-like mouse model; set-up: method as in PMID 23712602, PMID 28446611, PMID 28809075, PMID 28105008; conditions: cited from earlier work
[8] = ACh concentration-response curve

Compound | R, potentiation ratio (PR) ((α4G67E)3(β2)2 nAChR) | R, potentiation ratio (PR) ((α4H142L)3(β2)2 nAChR) | R, potentiation ratio (PR) ((α4Q150T)3(β2)2 nAChR) | R, potentiation ratio (PR) ((α4H94N)3(β2)2 nAChR) | R, potentiation ratio (PR) ((α4R65H)3(β2)2 nAChR) | R, potentiation ratio (PR) ((α4R148E)3(β2)2 nAChR [1]) | R, potentiation ratio (PR) ((α4E92I)3(β2)2 nAChR) | R, potentiation ratio (PR) ((α4L63I)3(β2)2 nAChR [2]) | R, potentiation ratio (PR) ((α4T152I)3(β2)2 nAChR [3]) | R, potentiation ratio (PR) ((α4R148E)3(β2)2 nAChR [4]) | potentiation of ACh responses (α3β4 nAChR) | increase in ACh efficacy (Imax) by dFBr ((α4)3(β2)2 nAChR; [8]) | dFBr maximal potentiation ((α4)3(β2)2 nAChR) [%] | R, potentiation ratio (PR) ((α4L63I)3(β2)2 nAChR [5]) | increase in ACh efficacy (Imax) by dFBr ((α4)2(β2)3 nAChR; [8]) | dFBr maximal potentiation ((α4)2(β2)3 nAChR) [%] | EC50 ((α4)2(β2)3 nAChR; read-out: dFBr potentiation EC50) [nM] | R, potentiation ratio (PR) ((α4T152I)3(β2)2 nAChR [6]) | compulsive-like behavior [7]
Cc1nc(Nc2ccc(F)cc2)sc1C(=O)c1ccsc1 [LY2087101, [2-[(4-Fluorophenyl)amino]-4-methyl-5-thiazolyl]-3-thienylmethanone] | 5.2 ± 0.7 | 8.7 ± 0.5 | 4.3 ± 0.2 | 5.2 ± 1.0 | 7.4 ± 1.3 | 11.1 ± 1.2 | 10.9 ± 2.6 | 4.3 ± 0.4 | 4.3 ± 1.3 | – | – | – | – | – | – | – | – | – | –
C=CC(C)(C)c1[nH]c2cc(Br)ccc2c1CCNC [dFBr] | – | – | – | – | – | – | – | – | – | 10.3 ± 2.4^a | did not potentiate | ~ 4 fold | 400 | 3.5 ± 0.3^a | ~ 4 fold | 300 | ~1000 | 2.6 ± 0.4^a | attenuate compulsive-like behavior
